Measurements reported in patent publication US10287292B2, “CXCR7 antagonists” (CHEMOCENTRYX, INC., priority 2012, dated 2019).

How the values were obtained:
CXCR7 receptor [1] = target: T1, CXCR7 receptor (Homo sapiens (Human), UniProt P25106); assay: Buffer Binding Analysis: displacement of 125I-labeled SDF-1 from CXCR7; conditions: 125I SDF-1 displacement, buffer binding medium, MCF-7 and/or MDA-MB-435S CXCR7 transfected cells, 3 hr at 4° C.; read-out: Avg Bind IC50
Method: (§1) The compounds were combined with cells expressing the CXCR7 receptor (e.g., MCF cells or cells transfected to express CXCR7) in the presence of the 125 I-labeled SDF-1 chemokine as detailed in Determination of IC50 values. Reagents and Cells (see below). The ability of the compounds to displace the labeled chemokine from the CXCR7 receptor sites at multiple concentrations was then determined with the screening process.
Compounds that were deemed effective modulators were able to displace at least 50% of the SDF-1 from the CXCR7 receptor at concentrations at or below 15 micromolar (μM) but >2500 nM (+); and more preferably at concentrations from >500 nM to ≤2500 nM (++). At present, especially preferred compounds can displace at least 50% of the SDF-1 from the CXCR7 receptor at concentrations at or below 500 nM (+++). Exemplary compounds that met these criteria are reproduced in Table 1 and the Examples above. In Table 1, Avg Bind IC50 refers to the Buffer Binding Analysis described below, while Avg Ser IC50 refers to the Serum Binding Analysis described below. All compounds were prepared as described in the Examples above, or by related methods substituting readily available starting materials.
(§2) ^125I-labeled SDF-1 was purchased from Perkin-Elmer Life Sciences, Inc. (Boston, Mass.). The MCF-7 (adenocarcinoma; mammary gland) cell line was obtained from the American Type Culture Collection (ATCC, Manassas, Va.) or and was cultured in DMEM (Mediatech, Herndon, Va.) supplemented with 10% fetal bovine serum (FBS) (HyClone Logan, Utah) and bovine insulin (0.01 mg/mL) (Sigma. St. Louis, Mo.) at 37° C. in a humidified incubator at a 5% CO2/air mixture. CXCR7 transfected MDA-MB-435S were produced as described below. MDA-MB-435S human breast cancer line, was purchased from ATCC, and cultured in DMEM/10% FBS medium. The complete coding sequence of the gene encoding CXCR7 (a.k.a. CCXCKR2, hRDC1), was isolated from MCF-7 cells using μMACs mRNA isolation kit (Miltenyi Biotec, Auburn, Calif.). DNA contamination was removed by DNase digestion via RNeasy columns (Qiagen, Inc., Valencia, Calif.) and cDNA was generated using GeneAmp RNA PCR Core Kit (Applied Biosystems, Foster City. Calif.). PCR of cDNA samples was performed using Taq PCR Master Mix kit (Qiagen. Inc.) and hRDC1 primers harboring 5′ and 3′ Not I sites (hRDC1F 5′ […]-3, hRDC1R 5′-[…]-3′) Not I digested PCR product was ligated into Not I digested pcDNA3.1(+)(Invitrogen, Carlsbad, Calif.) and screened for orientation and sequence confirmed. Plasmid DNA was then isolated from overnight bacterial cultures by Maxiprep (Qiagen, Inc.). Plasmid DNA (10 μg) was added to MDA-MB-435s cells and cells were electroporated (0.22 kV, 960 uF) via Gene Pulser (Biorad laboratories, Hercules, Calif.). 48 hr post-electroporation, cells were transferred to selection medium (600 ug/ml G418).
(§3) Target compounds can be tested to determine their ability to bind with CXCR7 sites on MCF-7 and/or MDA-MB-435S CXCR7 transfected cells. Efficiency-maxim/zed radioligand binding using filtration protocols as described in Dairaghi D J, et al., HHV8-encoded vMIP-I selectively engages chemokine receptor CCR5. Agonist and antagonist profiles of viral chemokines., J. Biol. Chem. 1999 Jul. 30; 274(31): 21569-74 and Gosling J. et al., Cutting edge: identification of a novel chemokine receptor that binds dendritic cell-and T cell-active chemokines including ELC. SLC, and TECK., J. Immunol. 2000 Mar. 15; 164(6):2851-6 was used.
In these assays, MCF-7 and/or MDA-MB-435S cells are interrogated with the target compounds and the ability of these compounds to displace ^125I radiolabeled SDF-1 assessed using the protocol described in Dairaghi and Gosling. […]

C6 cells = assay: Rat C6 model of glioblastoma; assay type: in vivo; conditions: C6 cells implanted into brains of Sprague-Dawley rats, tumors irradiated with 5-20 Gy after 7 days, then compound vs vehicle control
Method: Many tumor models in animals are known in the art, and may be employed to evaluate a compound of instance. For instance, in a rat C6 model of glioblastoma, 1×10^6 C6 cells were implanted by stereotactic injection into the into the brains of Sprague-Dawley rats. After 7 days tumors were irradiated with between 5-20 Gy of radiation. Following irradiation rats were treated (eg via subcutaneous, intraperitoneal, oral, parenteral or other route) with compound or vehicle control and tumors are allowed to progress. Animals were followed until death or loss of >20% weight, or removed for tumor induced neurodeficits eg seizures and immobility in according with appropriate regulations and standards.

CXCR7 receptor [2] = target: T1, CXCR7 receptor; assay: Serum Binding Analysis: displacement of 125I-labeled SDF-1 from CXCR7 in 100% human serum; conditions: 125I SDF-1 displacement in 100% human serum, MCF-7 and/or MDA-MB-435S CXCR7 transfected cells, 3 hrs at 4° C.; read-out: Avg Ser IC50
Method: as §1
In Table 1, Avg Bind IC50 refers to the Buffer Binding Analysis described below, while Avg Ser IC50 refers to the Serum Binding Analysis described below. All compounds were prepared as described in the Examples above, or by related methods substituting readily available starting materials.
as §2
as §3, with “In order to more properly assess the binding efficacy of the compounds, radioligand binding assays were carried out in the presence of 100% human serum to more accurately reflect the in vivo environment. […] Target” for “Target”, “compounds were” for “compounds can be”, “Gosling J,” for “Gosling J.”, “dendritic cell- and” for “dendritic cell-and”, “including ELC,” for “including ELC.”, “and TECK,” for “and TECK.,”
In these assays, MCF-7 and/or MDA-MB-435S cells were interrogated with the target compounds and the ability of these compounds to displace 125 I radiolabeled SDF-1 was assessed using the protocol described in Dairaghi and Gosling. The target compounds were added to the plate to the indicated concentration followed by addition of cells and radiolabeled chemokine (125I SDF-1), both in the following medium (human AB serum with 10 mM HEPES added to stabilize at pH 7.4). All assays were then incubated for 3 hrs at 4° C. with gentle agitation.

T1 sequence (P25106 whole entry): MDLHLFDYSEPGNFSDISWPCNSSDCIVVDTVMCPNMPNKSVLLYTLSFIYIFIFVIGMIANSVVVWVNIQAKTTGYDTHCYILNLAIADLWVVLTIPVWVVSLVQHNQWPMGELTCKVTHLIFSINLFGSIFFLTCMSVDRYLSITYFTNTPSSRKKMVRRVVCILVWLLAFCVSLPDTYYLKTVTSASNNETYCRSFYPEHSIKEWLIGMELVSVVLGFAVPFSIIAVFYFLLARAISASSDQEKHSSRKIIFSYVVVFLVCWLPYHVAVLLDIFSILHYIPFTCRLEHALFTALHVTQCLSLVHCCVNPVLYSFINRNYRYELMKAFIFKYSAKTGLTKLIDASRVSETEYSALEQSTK

Compound	IC50 (CXCR7 receptor [1]) [nM]	antitumor activity (delay in tumor growth, Kaplan Meier analysis of survival) (C6 cells)	IC50 (CXCR7 receptor [2]) [nM]
O=C(N[C@H]1CCN(c2nccn3ccnc23)C1)c1ncn(-c2ccc(F)cc2)n1 [Compound 1.090]	≤ 500	profound antitumor activity	≤ 500
O=C(N[C@H]1CCN(c2nccn3cccc23)C1)c1ccn(C2CCOCC2)n1 [Compound 1.088]	≤ 500	–	≤ 500
O=C(N[C@H]1CCN(c2nccn3cccc23)C1)c1noc(-c2ccccc2)n1 [Compound 1.120]	≤ 500	–	≤ 500
O=C(N[C@H]1CCN(c2nccn3cccc23)C1)c1coc(-c2ccc(F)cc2)n1 [Compound 1.095]	≤ 500	–	≤ 500
Cc1ccn2ccnc(N3CC[C@H](NC(=O)c4ccn(-c5ccccc5CC#N)n4)C3)c12 [Compound 1.101]	≤ 500	–	500 to 2500
Cc1ccn2ccnc(N3CC[C@H](NC(=O)c4ccn(-c5ccc(Cl)c(F)c5)n4)C3)c12 [Compound 1.100]	≤ 500	–	2500 to 15000
Cc1ccccc1-n1ccc(C(=O)N[C@H]2CCN(c3nccn4ccc(C)c34)C2)n1 [Compound 1.109]	≤ 500	–	500 to 2500
O=C(N[C@H]1CCN(c2nccn3cccc23)C1)c1coc(-c2ccccc2)n1 [Compound 1.125]	≤ 500	–	≤ 500
Cc1cc(Cl)ccc1-n1ccc(C(=O)N[C@H]2CCN(c3nccn4ccc(C)c34)C2)n1 [Compound 1.103]	≤ 500	–	500 to 2500
O=C(N[C@H]1CCN(c2nccn3cccc23)C1)c1ncc(-c2ccccc2)cn1 [Compound 1.093]	≤ 500	–	≤ 500
Cc1ccc2nc(C(=O)N[C@H]3CCN(c4nccn5cccc45)C3)ncc2c1 [Compound 1.085]	≤ 500	–	≤ 500
O=C(N[C@H]1CCN(c2nccn3ccnc23)C1)c1cnc(N2CCC(O)CC2)cn1 [Compound 1.075]	500 to 2500	–	2500 to 15000
Cc1cc(Cl)ccc1-n1ccc(C(=O)N[C@H]2CCN(c3nccn4cccc34)C2)n1 [Compound 1.094]	≤ 500	–	≤ 500
O=C(N[C@H]1CCN(c2nccn3cccc23)C1)c1csc(-c2ccc(F)cc2)n1 [Compound 1.096]	≤ 500	–	≤ 500
O=C(N[C@H]1CCN(c2nccn3cccc23)C1)c1csc(-c2ccccc2)n1 [Compound 1.124]	≤ 500	–	≤ 500
Cc1ccn2ccnc(N3CC[C@H](NC(=O)c4coc(-c5ccccc5)n4)C3)c12 [Compound 1.107]	≤ 500	–	500 to 2500
O=C(N[C@H]1CCN(c2nccn3ccnc23)C1)c1ncn(-c2ccccc2)n1 [Compound 1.091]	≤ 500	–	≤ 500
O=C(N[C@H]1CCN(c2nccn3cccc23)C1)c1ccn(-c2cccc(F)c2)n1 [Compound 1.113]	≤ 500	–	≤ 500
O=C(N[C@H]1CCN(c2nccn3cccc23)C1)c1ccn(-c2ccc(Cl)cn2)n1 [Compound 1.081]	≤ 500	–	500 to 2500
O=C(N[C@H]1CCN(c2nccn3cnnc23)C1)c1ccn(C2CCOCC2)n1 [Compound 1.087]	2500 to 15000	–	500 to 2500
Cc1ccccc1-n1ccc(C(=O)N[C@H]2CCN(c3nccn4cccc34)C2)n1 [Compound 1.123]	≤ 500	–	≤ 500
Cc1ccn2ccnc(N3CC[C@H](NC(=O)c4ccn(-c5ccc(F)cc5)n4)C3)c12 [Compound 1.106]	≤ 500	–	500 to 2500
